# Target: T1, Polyporus pinsitus laccase (Trametes villosa, UniProt Q99044)
# T1 construct: made in house
# T1 sequence (Q99044 22-520): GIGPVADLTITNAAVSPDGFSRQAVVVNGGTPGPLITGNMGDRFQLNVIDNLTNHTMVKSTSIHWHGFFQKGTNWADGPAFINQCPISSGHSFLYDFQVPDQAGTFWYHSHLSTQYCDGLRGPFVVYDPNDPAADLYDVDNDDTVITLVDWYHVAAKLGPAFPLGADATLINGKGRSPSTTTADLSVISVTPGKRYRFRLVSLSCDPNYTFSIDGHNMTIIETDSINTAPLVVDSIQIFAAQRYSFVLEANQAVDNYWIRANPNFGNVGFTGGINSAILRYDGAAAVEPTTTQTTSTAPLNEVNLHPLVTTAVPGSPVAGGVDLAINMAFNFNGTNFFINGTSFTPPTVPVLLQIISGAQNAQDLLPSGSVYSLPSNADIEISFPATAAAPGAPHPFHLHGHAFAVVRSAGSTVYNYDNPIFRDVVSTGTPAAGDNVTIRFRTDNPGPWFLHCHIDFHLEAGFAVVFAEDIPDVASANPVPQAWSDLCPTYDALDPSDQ
# Test: Bleaching of methyl orange using rPpL and NOH-type enhancing agents (initial bleaching rate)
# Type: biochemical
# Conditions: pH 4; rPpL solution diluted 1:200; 0.2 mM mediator; 30° C.; large negative numbers = best performance
# Experimental: (§1) Britton-Robinson buffer is composed of:
# (§2) Methyl orange (Merck, Germany)
# (§3) Reactions were started by addition of enzyme. Absorbance at 464 nm was followed for 3 minutes (readings every 5 seconds) on a Cobas Fara at 30° C. Initial bleaching rates were determined from the first linear part of the progress curves.
# (§4) The N—OH compounds listed above were tested as laccase mediators in bleaching of methyl orange with three recombinant laccases (rPpL, rMtL and rCcL) at various pH values. Large negative numbers represent the best performance.
row,SMILES,Initial changes per minute in A464 nm of methyl orange using rPpL [per minute]
1,O=c1[nH]c(=O)[nH]c(=O)[nH]1 [Cyanuric acid],−0.037
2,"On1nnc2ccccc21 [1-hydroxybenzotriazole, 1-Hydroxybenzotriazole]",−0.206
3,"CS(=O)(=O)c1ccc2ccn(OC(=O)c3ccccc3)c2c1 [PFC-202, Benzoic acid[6-(methylsulphonyl)indol-1-yl]ester]",−0.047

# Same assay, conditions: pH 5; rPpL solution diluted 1:200; 0.2 mM mediator; 30° C.; large negative numbers = best performance
row,SMILES,Initial changes per minute in A464 nm of methyl orange using rPpL [per minute]
1,O=c1[nH]c(=O)[nH]c(=O)[nH]1 [Cyanuric acid],−0.022
2,"On1nnc2ccccc21 [1-hydroxybenzotriazole, 1-Hydroxybenzotriazole]",−0.077
3,"CS(=O)(=O)c1ccc2ccn(OC(=O)c3ccccc3)c2c1 [PFC-202, Benzoic acid[6-(methylsulphonyl)indol-1-yl]ester]",−0.035

# Same assay, conditions: pH 6; rPpL solution diluted 1:200; 0.2 mM mediator; 30° C.; large negative numbers = best performance
row,SMILES,Initial changes per minute in A464 nm of methyl orange using rPpL [per minute]
1,O=c1[nH]c(=O)[nH]c(=O)[nH]1 [Cyanuric acid],−0.011
2,"On1nnc2ccccc21 [1-hydroxybenzotriazole, 1-Hydroxybenzotriazole]",−0.017
3,"CS(=O)(=O)c1ccc2ccn(OC(=O)c3ccccc3)c2c1 [PFC-202, Benzoic acid[6-(methylsulphonyl)indol-1-yl]ester]",−0.001

# Same assay, conditions: pH 7; rPpL solution diluted 1:200; 0.2 mM mediator; 30° C.; large negative numbers = best performance
row,SMILES,Initial changes per minute in A464 nm of methyl orange using rPpL [per minute]
1,O=c1[nH]c(=O)[nH]c(=O)[nH]1 [Cyanuric acid],−0.002
2,"On1nnc2ccccc21 [1-hydroxybenzotriazole, 1-Hydroxybenzotriazole]",−0.005
3,"CS(=O)(=O)c1ccc2ccn(OC(=O)c3ccccc3)c2c1 [PFC-202, Benzoic acid[6-(methylsulphonyl)indol-1-yl]ester]",0.000

# Target: T1, Polyporus pinsitus laccase
# Test: Bleaching of methyl orange with laccase and -NOH-CO- type mediators (microtitre plate, end-point absorbance)
# Type: biochemical
# Conditions: laccase, pH 4-6
# Experimental: Polyporus pinsitus laccase as described in Example 1.
# as §2
# 50 μl 0.1 mg/ml methyl orange
# 125 μl 0.1 M Britton-Robinson buffer (see example 1)
# 25 μl 2 mM mediator or water (as reference)
# 50 μl laccase dilution (1:400)
# Methyl orange, buffer and mediator are mixed in a microtitre plate and the reaction is started by addition of laccase. Absorbance is measured at 450 nm after 15 min.
# N-Hydroxyacetanilide and N-(4-cyanophenyl)-N-hydroxyacetamide were tested as mediators in bleaching of methyl orange with a laccase at pH 4-6. Low values represent the best performance.
row,SMILES,"bleaching a dye in solution, result in words"
1,CC(=O)N(O)c1ccc(C#N)cc1 [N-(4-cyanophenyl)-N-hydroxyacetamide],as effective as N-Hydroxyacetanilide

# Same assay, conditions: pH 4, laccase dilution 1:400, low values = best performance
row,SMILES,Absorbance measured at 450 nm after 15 minutes
1,CC(=O)N(O)c1ccc(C#N)cc1 [N-(4-cyanophenyl)-N-hydroxyacetamide],0.065

# Same assay, conditions: pH 5, laccase dilution 1:400, low values = best performance
row,SMILES,Absorbance measured at 450 nm after 15 minutes
1,CC(=O)N(O)c1ccc(C#N)cc1 [N-(4-cyanophenyl)-N-hydroxyacetamide],0.055

# Same assay, conditions: pH 6, laccase dilution 1:400, low values = best performance
row,SMILES,Absorbance measured at 450 nm after 15 minutes
1,CC(=O)N(O)c1ccc(C#N)cc1 [N-(4-cyanophenyl)-N-hydroxyacetamide],0.083

# Tested on: Recombinant Coprinus cinereus laccase (rCcL)
# Test: Bleaching of methyl orange using rCcL and NOH-type enhancing agents (initial bleaching rate)
# Type: biochemical
# Conditions: pH 4; rCcL solution diluted 1:200; 0.2 mM mediator; 30° C.; large negative numbers = best performance
# Experimental: as §1, §2, §3, §4
row,SMILES,Initial changes per minute in A464 nm of methyl orange using rCcL [per minute]
1,O=c1[nH]c(=O)[nH]c(=O)[nH]1 [Cyanuric acid],−0.005
2,"On1nnc2ccccc21 [1-hydroxybenzotriazole, 1-Hydroxybenzotriazole]",−0.016
3,"CS(=O)(=O)c1ccc2ccn(OC(=O)c3ccccc3)c2c1 [PFC-202, Benzoic acid[6-(methylsulphonyl)indol-1-yl]ester]",−0.005

# Same assay, conditions: pH 5; rCcL solution diluted 1:200; 0.2 mM mediator; 30° C.; large negative numbers = best performance
row,SMILES,Initial changes per minute in A464 nm of methyl orange using rCcL [per minute]
1,O=c1[nH]c(=O)[nH]c(=O)[nH]1 [Cyanuric acid],−0.008
2,"On1nnc2ccccc21 [1-hydroxybenzotriazole, 1-Hydroxybenzotriazole]",−0.018
3,"CS(=O)(=O)c1ccc2ccn(OC(=O)c3ccccc3)c2c1 [PFC-202, Benzoic acid[6-(methylsulphonyl)indol-1-yl]ester]",−0.010

# Same assay, conditions: pH 6; rCcL solution diluted 1:200; 0.2 mM mediator; 30° C.; large negative numbers = best performance
row,SMILES,Initial changes per minute in A464 nm of methyl orange using rCcL [per minute]
1,O=c1[nH]c(=O)[nH]c(=O)[nH]1 [Cyanuric acid],−0.012
2,"On1nnc2ccccc21 [1-hydroxybenzotriazole, 1-Hydroxybenzotriazole]",−0.019
3,"CS(=O)(=O)c1ccc2ccn(OC(=O)c3ccccc3)c2c1 [PFC-202, Benzoic acid[6-(methylsulphonyl)indol-1-yl]ester]",−0.016

# Same assay, conditions: pH 7; rCcL solution diluted 1:200; 0.2 mM mediator; 30° C.; large negative numbers = best performance
row,SMILES,Initial changes per minute in A464 nm of methyl orange using rCcL [per minute]
1,O=c1[nH]c(=O)[nH]c(=O)[nH]1 [Cyanuric acid],−0.012
2,"On1nnc2ccccc21 [1-hydroxybenzotriazole, 1-Hydroxybenzotriazole]",−0.017
3,"CS(=O)(=O)c1ccc2ccn(OC(=O)c3ccccc3)c2c1 [PFC-202, Benzoic acid[6-(methylsulphonyl)indol-1-yl]ester]",0.000

# Same assay, conditions: pH 8; rCcL solution diluted 1:200; 0.2 mM mediator; 30° C.; large negative numbers = best performance
row,SMILES,Initial changes per minute in A464 nm of methyl orange using rCcL [per minute]
1,O=c1[nH]c(=O)[nH]c(=O)[nH]1 [Cyanuric acid],−0.005
2,"On1nnc2ccccc21 [1-hydroxybenzotriazole, 1-Hydroxybenzotriazole]",−0.005
3,"CS(=O)(=O)c1ccc2ccn(OC(=O)c3ccccc3)c2c1 [PFC-202, Benzoic acid[6-(methylsulphonyl)indol-1-yl]ester]",0.011

# Tested on: Recombinant Myceliophthora thermophila laccase (rMtL)
# Test: Bleaching of methyl orange using rMtL and NOH-type enhancing agents (initial bleaching rate)
# Type: biochemical
# Conditions: pH 4; rMtL solution diluted 1:300; 0.2 mM mediator; 30° C.; large negative numbers = best performance
# Experimental: as §1, §2, §3, §4
row,SMILES,Initial changes per minute in A464 nm of methyl orange using rMtL [per minute]
1,O=c1[nH]c(=O)[nH]c(=O)[nH]1 [Cyanuric acid],−0.013
2,"On1nnc2ccccc21 [1-hydroxybenzotriazole, 1-Hydroxybenzotriazole]",−0.050
3,"CS(=O)(=O)c1ccc2ccn(OC(=O)c3ccccc3)c2c1 [PFC-202, Benzoic acid[6-(methylsulphonyl)indol-1-yl]ester]",−0.020

# Same assay, conditions: pH 5; rMtL solution diluted 1:300; 0.2 mM mediator; 30° C.; large negative numbers = best performance
row,SMILES,Initial changes per minute in A464 nm of methyl orange using rMtL [per minute]
1,O=c1[nH]c(=O)[nH]c(=O)[nH]1 [Cyanuric acid],0.010
2,"On1nnc2ccccc21 [1-hydroxybenzotriazole, 1-Hydroxybenzotriazole]",−0.019
3,"CS(=O)(=O)c1ccc2ccn(OC(=O)c3ccccc3)c2c1 [PFC-202, Benzoic acid[6-(methylsulphonyl)indol-1-yl]ester]",−0.017

# Same assay, conditions: pH 6; rMtL solution diluted 1:300; 0.2 mM mediator; 30° C.; large negative numbers = best performance
row,SMILES,Initial changes per minute in A464 nm of methyl orange using rMtL [per minute]
1,O=c1[nH]c(=O)[nH]c(=O)[nH]1 [Cyanuric acid],−0.002
2,"On1nnc2ccccc21 [1-hydroxybenzotriazole, 1-Hydroxybenzotriazole]",−0.007
3,"CS(=O)(=O)c1ccc2ccn(OC(=O)c3ccccc3)c2c1 [PFC-202, Benzoic acid[6-(methylsulphonyl)indol-1-yl]ester]",0.001

# Same assay, conditions: pH 7; rMtL solution diluted 1:300; 0.2 mM mediator; 30° C.; large negative numbers = best performance
row,SMILES,Initial changes per minute in A464 nm of methyl orange using rMtL [per minute]
1,O=c1[nH]c(=O)[nH]c(=O)[nH]1 [Cyanuric acid],0.000
2,"On1nnc2ccccc21 [1-hydroxybenzotriazole, 1-Hydroxybenzotriazole]",−0.002
3,"CS(=O)(=O)c1ccc2ccn(OC(=O)c3ccccc3)c2c1 [PFC-202, Benzoic acid[6-(methylsulphonyl)indol-1-yl]ester]",0.005

# Source: patent US6399561B1, “Methods and compositions for bleaching a dye in solution” (Novozymes A/S, priority 1998, dated 2002)
